# According to publication PMC8868193 (Antibiotics, 2022):
# Where two headings read alike, the source gives them in different places. Non-standard residues stand in square brackets, D forms with d. Residues, ends and D or L forms follow the SMILES beside them. NMeA = CN[C@@H](C)C(=O)O
# Legend:
# [1] = test system: Candida albicans SC5314; assay: microbe, parasite or virus in culture; conditions: for MIC: Candida albicans; for Anti-Fungal MICs: SC5314, pH 7
# Procedure: Candida albicans SC5314 was used as a test strain for the antifungal and synergistic antifungal bioassay. Checkerboard assays were carried out as described previously. Overnight cultures were chosen to prepare the strain suspension with RPMI 1640 medium. RPMI 1640 was purchased from Invitrogen, and was used according to the manufacturer’s protocol, by supplementing 2% glucose, 3.45% MOS, then adjusting the pH to 7.0. Compounds were dissolved in DMSO. Final concentrations ranged from 0.002 to 2 μg/mL for rapamycin and 0.39 to 25 μg/mL for peptide-like compounds, respectively. Rapamycin was 2-fold diluted from 1 to 11 (column), while selected compounds were 2-fold diluted from A to G (row) of the 96-well microtiter plate. The fractional inhibitory concentration index (FICI) is defined as the sum of the MIC of each drug when used in combination divided by the MIC of the drug used alone. Synergism and antagonism were defined by FICI of ≤0.5 and >4, respectively.
# [2] = target: T1, HDAC8 (Homo sapiens, UniProt Q9BY41); assay: HDAC activity assay (HDAC8 Deacetylase Fluorometric (Human) Assay Kit); format: biochemical; conditions: triplicate
# T1 construct: purchased Abnova KA4444
# T1 sequence (Q9BY41 1-377): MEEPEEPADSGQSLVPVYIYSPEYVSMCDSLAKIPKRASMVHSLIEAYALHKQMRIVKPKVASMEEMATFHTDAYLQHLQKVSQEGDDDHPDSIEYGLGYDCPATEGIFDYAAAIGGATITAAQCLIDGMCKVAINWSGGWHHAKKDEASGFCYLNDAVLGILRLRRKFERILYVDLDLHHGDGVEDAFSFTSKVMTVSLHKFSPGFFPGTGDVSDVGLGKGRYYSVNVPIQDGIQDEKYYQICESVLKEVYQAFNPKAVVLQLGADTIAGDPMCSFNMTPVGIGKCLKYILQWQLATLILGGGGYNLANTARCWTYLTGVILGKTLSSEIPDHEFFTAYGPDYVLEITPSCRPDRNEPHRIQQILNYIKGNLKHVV
# Procedure: The HDAC activity of the compounds was measured using an HDAC8 Deacetylase Fluorometric (Human) Assay Kit (Cat KA4444, Abnova, Taipei, Taiwan) according to the manufacturer’s instructions. Fluorescence signal was detected with excitation at 360 nm and emission at 460 nm using a fluorescence microplate reader (Perkin-Elmer, Waltham, MA, USA). Experiments were performed in triplicate and data were analyzed using GraphPad Prism (version 6.0), Kd values were calculated by nonlinear curve fitting using a 1-site binding (hyperbola) model (Y = Bmax*X/(Kd + X).
# [3] = design: method as in 3 sources, ref [9] = [9]; PMID 16839576; doi:10.1016/j.phytochem.2006.05.033; 9. Walton J.D. HC-toxin Phytochemistry 2006 67 1406 1413 10.1016/j.phytochem.2006.05.033 16839576 ||| ref [16] = [16]; PMID 35747077; doi:10.1039/D0RA09388B; 16. Lin X. Chai L. Zhu H.R. Zhou Y. Lin. H.W. Applying molecular networking for targeted isolation of depsipeptides RSC Adv. 2021 11 2774 10.1039/D0RA09388B PMC9134009 35747077 ||| ref [17] = [17]; PMID 32528927; doi:10.3389/fchem.2020.00397; 17. Sala G.D. Mangoni A. Costantino V. Teta R. Identification of the biosynthetic gene cluster of thermoactinoamides and discovery of new congeners by integrated genome mining and MS-Based molecular n; conditions: literature, cited from earlier work
# [4] = literature; ref [10]; cited from earlier work
# Description: Fungal natural products play a prominent role in the development of pharmaceutical agents.
# [5] = SC5314, pH 7, read-out: Anti-Fungal MICs
compound,measurement,setting,value
"C[C@@H]1[C@H](O)[C@@H](C)/C=C/C=C/C=C/C=C/C=C/C=C/C=C/[C@H](O[C@@H]2O[C@H](C)[C@@H](O)[C@H](N)[C@@H]2O)C[C@@H]2O[C@](O)(C[C@@H](O)C[C@@H](O)[C@H](O)CC[C@@H](O)C[C@@H](O)CC(=O)O[C@H]1C)C[C@H](O)[C@H]2C(=O)O [Amphotericin B, reference compound]",MIC,[1]; [5],0.5 µM
same,MIC,"[1]; SC5314, pH 7, read-out: Synergistic Anti-Fungal MICs",0.125 µM
"CC[C@H](C)[C@@H]1NC(=O)[C@H](C(C)C)NC(=O)[C@@H](Cc2ccc(OC)cc2)NC(=O)[C@H](C)N(C)C1=O [Compound 1, cyclo-[L-N-Me-Ala-L-Ile-L-Val-D-O-Me-Tyr]] (cyclo(I[NMeA][dY](Me)V))",Anti-Fungal MICs,[1],>100 µM
same,IC50,"[2]; text: HDAC at the cell level, method: HDAC8 fluorometric kit, ex 360 nm / em 460 nm, read-out: HDAC inhibition IC50",~70 µM
"CC[C@H](C)[C@@H]1NC(=O)[C@H]([C@@H](C)O)NC(=O)[C@@H](Cc2ccc(OC)cc2)NC(=O)[C@H](C)N(C)C1=O [Compound 2, cyclo-[L-N-Me-Ala-L-Ile-L-Thr-D-O-Me-Tyr]] (cyclo([NMeA][dY](Me)TI))",Anti-Fungal MICs,[1],>100 µM
same,antifungal activity alone (in words),"[1]; compound alone, C. albicans",no antifungal effects alone
same,Synergistic Anti-Fungal MICs,"[1]; with 0.008 μM rapamycin, C. albicans SC5314, checkerboard, RPMI 1640, pH 7.0, start concentration 25 μM, 90% growth inhibition",6.25 µM
same,concentration of compound required with rapamycin for achieving 90% growth inhibition (checkerboard MIC),"[1]; with 0.008 μM rapamycin, Candida albicans SC5314",6.25 µM
same,HDAC inhibitory activity (in words),[2]; HDAC8 fluorometric kit,weak HDAC (histone deacetylase) inhibitory activity
"CO[C@H]1C[C@@H]2CC[C@@H](C)[C@@](O)(O2)C(=O)C(=O)N2CCCC[C@H]2C(=O)O[C@H]([C@H](C)C[C@@H]2CC[C@@H](O)[C@H](OC)C2)CC(=O)[C@H](C)/C=C(\C)[C@@H](O)[C@@H](OC)C(=O)[C@H](C)C[C@H](C)/C=C/C=C/C=C/1C [Rapamycin, reference compound]",MIC,[1]; [5],0.5 µM
same,concentration of rapamycin required in combination for achieving 90% growth inhibition (checkerboard MIC),"[1]; together with 6.25 μM of compounds 1 and 2, Candida albicans SC5314",0.008 µM
HC toxin,cytotoxic / antimitogenic activity (in words),[3]; ref [9],cytotoxic and antimitogenic activities
apicidin,antiprotozoan activity (in words),[4],antiprotozoan activities
neoantimycin L,cytotoxicity (in words),[3]; ref [16],excellent cytotoxicity
thermoactinoamide A,antiproliferative activity (in words),[3]; ref [17],moderate antiproliferative activity
